Data: patent US20240010729A1, “COMBINATION THERAPY OF A PD-1 ANTAGONIST AND LAG3 ANTAGONIST AND LENVATINIB OR A PHARMACEUTICALLY ACCEPTABLE SALT THEREOF FOR TREATING PATIENTS WITH CANCER” (MERCK SHARP & DOHME LLC, priority 2020, published 2024)

Legend:
[1] = system: CT26 colorectal model; assay: CT26 mouse syngeneic tumor model (tumor growth inhibition, survival); details: CT26, Day 17; lenvatinib 10 mg/kg oral QD, antibodies 10 mg/kg i.p. every 5 days
From the text: Prior to treatment initiation, female BALB/c mice (for CT26 study) or C57BL/6J mice (for KPC-2838c3 study) aged 8 weeks weighing between 18 to 21 grams were anesthetized and subcutaneously injected into the rear flank with 0.3×10^6 CT26 or 0.5×10^6 KPC-2838c3 log-phase sub-confluent cells. When the mean tumor volume of inoculated animals reached approximately 100 mm^3 (II days later for CT26, 15 days later for KPC-2838c3) mice were pair-matched into 8 treatment groups consisting of 10 mice per group. Treatment groups consisted of: 1) 0.5% methylcellulose (Vehicle)+Isotype mouse IgG1 antibody (migG1); 2) Vehicle+anti-PD-1 mIgG1 antibody (muDX400); 3) Vehicle+anti-LAG3 mIgG1 antibody (28G10); 4) Lenvatinib+isotype; 5) Vehicle+anti-PD-1+anti-LAG3; 6) Lenvatinib+anti-PD-1; 7) Lenvatinib+anti-LAG3; 8) Lenvatinib+anti-PD-1+anti-LAG3. Vehicle and lenvatinib were orally gavage-dosed once daily (QD) at 10 mg/kg body weight. Isotype control, a mouse monoclonal antibody specific for adenoviral hexon of the isotype IgG1, as well as anti-PD-1 and anti-LAG3 antibodies were dosed intraperitoneally every 5 days at 10 mg/kg body weight. Start of treatments was considered Day 0 and dosing based on schedules continued as described until Day 35. Caliper measurements of tumors and body weights were captured twice weekly. […]

[2] = system: mCRC that is non MSI-H/pMMR; details: third line mCRC patients; cited from earlier work

Row | Compound | TGI (tumor growth inhibition) respective to Vehicle-treated animals [1] [%] | 6-month PFS rate [2] [%]
1 | COc1cc2nccc(Oc3ccc(NC(=O)NC4CC4)c(Cl)c3)c2cc1C(N)=O [Lenvatinib, 4-[3-chloro-4-(cyclopropylaminocarbonyl)aminophenoxy]-7-methoxy-6-quinolinecarboxamide] | 54 | 
2 | CNC(=O)c1cc(Oc2ccc(NC(=O)Nc3ccc(Cl)c(C(F)(F)F)c3)c(F)c2)ccn1 [regorafenib] |  | ~15
